The target in one data set is T1, OAT4 (Homo sapiens, UniProt Q9NSA0).
T1 sequence (Q9NSA0 1-550): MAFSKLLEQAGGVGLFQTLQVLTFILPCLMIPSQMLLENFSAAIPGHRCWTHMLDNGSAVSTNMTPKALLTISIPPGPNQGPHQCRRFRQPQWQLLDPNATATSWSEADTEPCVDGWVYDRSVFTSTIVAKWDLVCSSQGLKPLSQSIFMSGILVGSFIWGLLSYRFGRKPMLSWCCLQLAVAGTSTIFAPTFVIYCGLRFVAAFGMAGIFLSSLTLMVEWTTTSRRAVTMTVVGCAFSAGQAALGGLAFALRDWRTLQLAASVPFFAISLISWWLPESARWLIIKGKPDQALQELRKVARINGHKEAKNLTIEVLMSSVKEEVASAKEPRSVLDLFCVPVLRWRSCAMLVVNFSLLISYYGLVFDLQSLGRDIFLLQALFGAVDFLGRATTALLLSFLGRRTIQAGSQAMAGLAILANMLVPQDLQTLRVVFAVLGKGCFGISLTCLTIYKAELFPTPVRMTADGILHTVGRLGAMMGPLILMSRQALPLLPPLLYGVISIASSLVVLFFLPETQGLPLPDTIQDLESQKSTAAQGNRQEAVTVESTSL
Kind of data set: OTA uptake in OAT4-overexpressing HEK293 cells (screen and kinetics). As to the method:
(§1) The following experiments were conducted at the University of Washington. Mock HEK293 cells and transporter-overexpressing HEK293 cells (i.e., OAT1–4, OCT2, MATE1/2K, OCTN1, OATP1A2), mock CHO cells, and OCTN2-overexpressing CHO cells were plated in 96 well plates coated with 0.05 mg/mL of poly-D-lysine in 50 μL DPBS at a density of 800,000 cells/mL and grown until reaching over 90% of confluence. […] For uptake experiments in MATE1- and MATE2-K-expressing HEK293 cells, the pH of the incubation buffer was adjusted to 8.0 to facilitate substrate uptake. For uptake experiments in OATP1A2-expressing and OAT4-expressing HEK293 cells, the pH of the incubation buffer was adjusted to 6.5 to mimic pH of the urinary filtrate, as these are apical transporters. The incubation buffer was kept at pH 7.4 for all other transporters. […] Uptake was quenched by removing the substrates/inhibitors and washing the cells 3 times with 200 μL of ice-cold HBSS++. […] The precipitated protein was allowed to dry and subsequently solubilized overnight in 1M NaOH, neutralized with 1 M HCl the next day, and measured by BCA assay.
(§2) All cellular-based assays were conducted in technical triplicate across three independent experiments. […] This cutoff was defined a priori. […] Jnet was then treated as the initial uptake rate, and Km and Vmax values were obtained by fitting the Michaelis–Menten equation to the substrate-concentration data as described above. Intrinsic clearance (CLint) was then calculated by the formula, CLint=Vmax/Km using Vmax and Km values as calculated above. […] At steady-state, the mass balance for intracellular concentrations assuming symmetric passive permeabilities (Papical = Pbasal, taken as Papp from mock assays) and apical efflux gives: Ccell= Cbasal/1+ ke/Pa where Cbasal is the concentration in the basal chamber and ke is the first-order elimination with respect to BCRP. Because the asymmetric efflux ratio ERa is defined as: ERa=1+ ke/Pa

For data set [1], the system named is human serum albumin (HSA). To be noted: no reference given; cited from earlier work.
The conditions of data set [2]: 0.5 mg/kg oral, rats, cited from earlier work.
For the next data set, the system named is SLC17A3 (NPT4). To be noted: OTA extracellular efflux; cited from earlier work.
For the next data set, the system named is hPEPT (PEPT1, PEPT2). Kind of data set: OTA uptake in PEPT1- and PEPT2-expressing MDCK-II cells. The class given is in vitro ADME, human. To be noted: 10 μM OTA, pH 6.5, 5 min.
For data set [3] the following is noted: single fasted volunteer, microdose of radioactive OTA in ethanol, within 8 h, not absolute bioavailability; cited from earlier work.
The target in a further data set is T2, OAT3 (Homo sapiens, UniProt Q8TCC7).
T2 sequence (Q8TCC7 1-542): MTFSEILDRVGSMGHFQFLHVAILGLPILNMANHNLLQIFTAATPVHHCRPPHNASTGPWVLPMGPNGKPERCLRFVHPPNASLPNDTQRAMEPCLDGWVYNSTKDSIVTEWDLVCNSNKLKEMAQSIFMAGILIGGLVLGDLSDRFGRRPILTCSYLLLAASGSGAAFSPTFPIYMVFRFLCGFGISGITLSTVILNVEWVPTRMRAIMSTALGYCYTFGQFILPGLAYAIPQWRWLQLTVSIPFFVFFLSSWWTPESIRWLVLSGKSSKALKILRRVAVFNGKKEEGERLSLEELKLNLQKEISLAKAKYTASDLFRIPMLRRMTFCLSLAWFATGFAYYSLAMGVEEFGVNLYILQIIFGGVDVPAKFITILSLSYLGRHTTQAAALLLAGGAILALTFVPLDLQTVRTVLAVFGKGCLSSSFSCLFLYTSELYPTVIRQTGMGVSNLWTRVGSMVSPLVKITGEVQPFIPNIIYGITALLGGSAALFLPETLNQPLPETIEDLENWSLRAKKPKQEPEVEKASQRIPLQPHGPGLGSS
Kind of data set: OTA uptake in OAT3-overexpressing HEK293 cells (screen and kinetics). As for the experimental part: as §1, §2

Where [4] appears, read: HEK293, 5 min, 37 °C, pH 6.5, mock-corrected.

Here are results for 1 compound from publication PMC12655426 (Pharmaceutics, 2025).

Molecules are shown by their SMILES. Some results are limits rather than exact numbers.

One may read the Km as the concentration of substrate that gives half-maximal velocity. A word on the Vmax: it is the top rate of the reaction or transport when substrate is in excess. `C[C@@H]1Cc2c(Cl)cc(C(=O)N[C@@H](Cc3ccccc3)C(=O)O)c(O)c2C(=O)O1` [OTA, Ochratoxin A]: the Km at OAT4 (setting [4]) was 6.38 ± 1.45 µM; in the data set on SLC17A3 (NPT4) it was 803 µM. In addition, the maximal velocity (Vmax) on OAT4 (setting [4]) turned out to be 96.9 ± 18.8 pmol/mg/min; on OAT3 (HEK293, 5 min, 37 °C, pH 7.4, mock-corrected) it was 141.4 ± 30.3 pmol/mg/min. In addition, the microsomal CLint on OAT4 (human, other cell line, pH 6.5) came to 15.3 ± 0.8 µL/min/mg; on OAT3 (human, other cell line, pH 7.4), 56.1 ± 6.3 µL/min/mg. For the same compound, the “bound to human serum albumin” value in data set [1] was over 99%. In data set [2] (after 24 h), the “OTA accumulated in kidney tissue” value is “over 400 pmol/g”. For the same compound, the “dose recovered in urine and feces” value in data set [2] (after 96 h) is 15%. Also, the “hPEPT-mediated transport of OTA” value in the data set with hPEPT (PEPT1, PEPT2) was “did not observe any hPEPT-mediated transport”. For the same compound, the “percentage of administered radioactivity detected in plasma” value in data set [3] is recorded as ~ 93%. Further, on OAT3 (human, pH 7.4), the Km at 5 min stood at 2.58 ± 0.83 µM.
